# Test results taken from patent US20090185973A1, “METHODS, COMPOSITIONS, UNIT DOSAGE FORMS, AND KITS FOR PHARMACOLOGIC STRESS TESTING WITH REDUCED SIDE EFFECTS” (ADENOBIO N.V., priority 2008, published 2009).
# Where “and” joins values, the source holds several entries; their conditions need not be identical. Identical values can stand only once. Like-named read-outs stand apart in the source and are kept apart here.
# Key:
# A2a receptor = A2a receptor (Homo sapiens, UniProt P29274); conditions: in vivo; cited from earlier work
# [1] = test system: patients suffering from ischemic heart disease; test: Transthoracic doppler echocardiography (TTDE) blood flow velocity in LAD, sequential administration (Example 1); assay type: in vivo, human; conditions: lower doses of dipyridamole (10, 14 and 18 μg/kg)
# Experimental: In the combined administration, each of the two agents was administered at a dosage lower than its clinically preferred dosage when used as a single agent for myocardial perfusion imaging. Effects were measured using noninvasive transthoracic doppler echocardiography (TTDE).
# Primary efficacy end-points were peak and mean diastolic flow velocities (measured as reflecting coronary blood flow values). The secondary end-point was patient tolerance to the procedure. The protocol was designed as follows.
# Forty (40) consecutive patients suffering from ischemic heart disease were enrolled. Each patient served as their own control.
# […] Total doses are between about 4-6% of the lowest single-agent total dose of dipyridamole (i.e., 0.56 mg/kg, infused over a total of 4 minutes).
# This dose is half the standard single-agent dosage rate of 140 μg/kg/min.
# guinea-pig = conditions: pretreatment dipyridamole 0.025 mg (n = 5); after 14C-adenosine IV injection; mean; cited from earlier work
# [2] = cited from earlier work
# [3] = test system: patients with normal coronary reserve; test: Priming dose effect: time to peak and return to baseline, concurrent administration (Example 4); assay type: in vivo, human
# Source text: As a test, a low priming dose of dipyridamole was combined with the concurrent administration of the two drugs to determine whether the time to peak and the occurrence of near maximal hyperaemia could be accelerated, especially when infusion time is reduced by, for example, one minute.
# patients = assay type: in vivo, human; conditions: for PV Max, individual patients / MV Max, individual patients / MV Min, individual patients / PV Min, individual patients: listed as DIP
# [4] = DIP dose 28 μg/kg, ADE 140 μg/kg/min
# [5] = DIP dose 35 μg/kg, ADE 140 μg/kg/min
# [6] = DIP dose 40 μg/kg, ADE 140 μg/kg/min
# Sequence of A2a receptor (P29274 whole entry): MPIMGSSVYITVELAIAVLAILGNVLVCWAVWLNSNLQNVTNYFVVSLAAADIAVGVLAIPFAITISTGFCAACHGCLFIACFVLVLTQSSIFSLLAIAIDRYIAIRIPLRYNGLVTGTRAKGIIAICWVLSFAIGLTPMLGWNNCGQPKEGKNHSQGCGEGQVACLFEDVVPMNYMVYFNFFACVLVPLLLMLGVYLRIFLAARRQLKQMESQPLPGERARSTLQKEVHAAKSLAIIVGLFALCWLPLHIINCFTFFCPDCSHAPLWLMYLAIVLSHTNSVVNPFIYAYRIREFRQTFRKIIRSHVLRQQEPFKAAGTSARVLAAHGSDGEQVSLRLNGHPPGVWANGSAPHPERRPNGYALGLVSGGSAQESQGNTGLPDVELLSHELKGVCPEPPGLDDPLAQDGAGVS
compound,measurement,setting,value
Nc1nc(N/N=C/C2CCCCC2)nc2c1ncn2[C@@H]1O[C@H](CO)[C@@H](O)[C@H]1O [binodenoson],Duration of action,A2a receptor,10 ± 6 min
OCCN(CCO)c1nc(N2CCCCC2)c2nc(N(CCO)CCO)nc(N3CCCCC3)c2n1 [dipyridamole],Effect in preliminary dose ranging studies,[1],no effect
same,"14C distribution, Heart",guinea-pig,2.1 ± 1.01 percentage of ^14C administered
same,"14C distribution, Lungs",guinea-pig,71.4 ± 4.9 (p < 0.05) percentage of ^14C administered
same,Solubility in saline,[2]; saline,poorly soluble
same,Stability in the long term,[2]; solvents at pH>4,unstable
same,Effect of priming dose on time to peak,"[3]; dipyridamole priming dose 0.05 mg, 3 patients",did not modify
same,Effect of priming dose on time to peak,[3]; dipyridamole priming dose 0.1 mg,did modify
same,Effect of priming dose on time to peak,"[3]; dipyridamole priming dose 0.3 mg, 3 patients",did not perform better than 0.1 mg
same,"PV Max, individual patient","patients; DIP dose 28 μg/kg bolus alone, ADE 140 μg/kg/min 3 min",26 cm/sec
same,"MV Max, individual patient",patients; [4],21 cm/s
same,"MV Min, individual patient",patients; [4],19 cm/s
same,"PV Min, individual patient",patients; [4],23 cm/sec
same,"PV Max, individual patients","patients; DIP dose 35 μg/kg bolus alone, ADE 140 μg/kg/min 3 min",23 cm/sec and 40 cm/sec
same,"MV Max, individual patients",patients; [5],20 cm/s and 28 cm/s
same,"MV Min, individual patients",patients; [5],18 cm/s and 22 cm/s
same,"PV Min, individual patients",patients; [5],21 cm/sec and 30 cm/sec
same,"PV Max, individual patients","patients; DIP dose 40 μg/kg bolus alone, ADE 140 μg/kg/min 3 min",35 cm/sec and 40 cm/sec
same,"MV Max, individual patients",patients; [6],25 cm/s and 29 cm/s
same,"MV Min, individual patients",patients; [6],23 cm/s and 24 cm/s
same,"PV Min, individual patients",patients; [6],33 cm/sec and 34 cm/sec
same,Effect on peak and mean diastolic velocities,"patients; dipyridamole alone, bolus 28, 35 or 40 μg/kg",did not modify
same,Symptoms recorded during a follow-up of 10 minutes,patients; in vivo,No symptoms
